Data published in PubChem BioAssay (NCI).
Where “and” joins values, the source holds several entries; their conditions need not be identical. Identical values can stand only once.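 Where inhibition never reached the appropriate level, the endpoint shown equals the highest concentration tested. Otherwise, values were interpolated linearly from a five-concentration, 48-hour dose response in 96-well plates. The concentration for 50% growth inhibition is given as GI50. TGI is the concentration that stops growth completely.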

Experiments:
Assay in all cases: NCI tumour cell line growth inhibition, 48 h
DU-145 prostate = tested on: DU-145 prostate
EKVX NSCLC = tested on: EKVX NSCLC
HL-60(TB) leukemia = tested on: HL-60(TB) leukemia
HOP-62 NSCLC = tested on: HOP-62 NSCLC
MALME-3M melanoma = tested on: MALME-3M melanoma
NCI-H522 lung = tested on: NCI-H522 lung
PC-3 prostate = tested on: PC-3 prostate
RXF 393 renal = tested on: RXF 393 renal
SF-268 CNS = tested on: SF-268 CNS
U251 CNS = tested on: U251 CNS

Structure (SMILES)	TGI (DU-145 prostate) [µM]	TGI (EKVX NSCLC) [µM]	TGI (HL-60(TB) leukemia) [µM]	TGI (HOP-62 NSCLC)	TGI (MALME-3M melanoma) [µM]	TGI (NCI-H522 lung) [µM]	TGI (PC-3 prostate) [µM]	TGI (RXF 393 renal)	TGI (SF-268 CNS) [µM]	TGI (U251 CNS) [µM]	GI50 (EKVX NSCLC)	GI50 (NCI-H522 lung)	GI50 (RXF 393 renal)	GI50 (SF-268 CNS)	GI50 (U251 CNS)
N=C(N)SCc1nc(-c2ccc(Cl)cc2)no1	63	89.4	37.1	> 100 µM	34.6	25.1	37.5	25 µM	> 100	78.8					
N#Cc1ccc(-c2ccc(Cl)cc2)n(C2OC(CO)C(O)C(O)C2O)c1=S (configuration not stated)	> 100	> 100	> 100	> 100 µM and 36.3 µM	> 100	> 100	> 100	> 100 µM and 51 µM	> 100	> 100	> 100 µM and 33.7 µM	> 100 µM and 15.5 µM	> 100 µM and 18.7 µM	> 100 µM and 39.6 µM	> 100 µM and 20 µM
c1ccc2c(c1)nnn2C1CCCCO1 (configuration not stated)	> 100	> 100	> 100	> 100 µM	> 100	> 100	> 100	> 100 µM	> 100	> 100					
C1=CC2C(C3CN(c4ccccc4)N=C13)C1C3C4C=CC21C=CC43 (configuration not stated)	> 100	> 100	> 100	> 100 µM	> 100	> 100	> 100	> 100 µM	> 100	> 100					
N#Cc1c(/C=C/c2ccccc2)c2c([nH]c1=S)CCCCC2	> 100	> 100	> 100	> 100 µM	> 100	> 100	> 100	> 100 µM	> 100	> 100					
CCCCCCCCCCCC(=O)N(CCCCCCCCC)CC(O)C(O)C(OC1OC(CO)C(O)C(O)C1O)C(O)CO (configuration not stated)	33.8	31.5	45.8	38.9 µM	37.7	44.1	39.2	50 µM	39.3	35.5					
CCOc1ccccc1N=NC1C(=O)N(C(=O)CC(=O)Nc2ccccc2C)N=C1C (configuration not stated)	> 100	43.7	> 100	41.5 µM	> 100	> 100	> 100	89.4 µM	63.6	49.1					
N#Cc1sc2c(c1OC(=O)c1ccco1)c(=O)n(-c1ccccc1)c(=S)n2-c1ccccc1	> 100	> 100	> 100	> 100 µM	58.2	64.4	> 100	69.6 µM	> 100	80.9					
CCC[N+](C)(C)CCCNC(=O)c1c(O)c2ccccc2[nH]c1=O	> 100	> 100	> 100	> 100 µM	> 100	> 100	> 100	> 100 µM	> 100	> 100					
OC(CCN1CCN(CCOC(c2ccccc2)c2ccccc2)CC1)c1ccccc1 (configuration not stated)	> 100	45.8	44.3	44.3 µM	32.6	32.7	65.5	48.6 µM	57	36					
Cc1ccc(C)n1-c1ccccc1C1C=Cn2c(=O)oc3c(OC(C)C)c(OC(C)C)c(O)c1c32 (configuration not stated)	> 100	> 100	> 100	> 100 µM	> 100	75.5	93.9	32.7 µM	> 100	> 100					
OCc1ccc2c(c1)CC1(Cc3ccccc3C1)C2	> 100	80.2	67.4	> 100 µM	29.4	72.1	33.5	36.2 µM	40.9						
O=C(CC(=O)N1N=C(c2ccccc2)C(N=Nc2ccc(S(=O)(=O)CCOS(=O)(=O)O)cc2)C1=O)Nc1ccc(Cl)cc1 (configuration not stated)	> 100	> 100	> 100	> 100 µM	> 100	> 100	> 100	> 100 µM	> 100	> 100					
COc1ccc(/C(=N/O)c2ccccc2C2=Nc3ccccc3C(NCc3ccccc3)O2)cc1C (configuration not stated)	> 100	> 100	> 100	> 100 µM	52.7	> 100	> 100	> 100 µM	> 100	> 100					
CC1(C)CCCCCC(O)C(O)CCC(C)(C)C1=O (configuration not stated)	> 100	> 100	> 100	> 100 µM	> 100	> 100	> 100	> 100 µM	> 100	> 100					
O=C1CCCC1CC(CN1CCOCC1)Sc1nnnn1-c1ccccc1 (configuration not stated)	> 100	> 100	82.2	> 100 µM	> 100	> 100	> 100	> 100 µM		> 100					
CC1(C)CC(=O)c2c(N)n[nH]c2C1	> 100	> 100	> 100	> 100 µM	> 100	> 100	> 100	> 100 µM		> 100					
